The record followed here is patent US8642628B2, “Pyrrole inhibitors of S-nitrosoglutathione reductase” (N30 Pharmaceuticals, Inc., priority 2008, dated 2014).

This experiment deals with T1, GSNOR (GSNO Reductase) (Homo sapiens, UniProt P11766).
T1 construct: made in house; host or cells: E. coli (arabinose-induced)
T1 sequence (P11766 whole entry): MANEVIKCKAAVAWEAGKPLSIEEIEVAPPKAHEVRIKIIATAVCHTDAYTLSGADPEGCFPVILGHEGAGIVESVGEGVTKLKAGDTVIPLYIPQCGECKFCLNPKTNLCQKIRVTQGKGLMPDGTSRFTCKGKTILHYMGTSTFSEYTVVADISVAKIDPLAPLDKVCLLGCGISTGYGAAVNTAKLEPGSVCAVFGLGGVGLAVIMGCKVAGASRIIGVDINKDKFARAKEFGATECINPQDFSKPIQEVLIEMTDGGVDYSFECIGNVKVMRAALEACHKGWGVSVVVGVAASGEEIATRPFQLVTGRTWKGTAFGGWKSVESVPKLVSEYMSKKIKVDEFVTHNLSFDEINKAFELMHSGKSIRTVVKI
Kind of experiment: GSNOR assay (inhibition of GSNOR activity, change in 340 nm absorbance). It counts as biochemical. The conditions noted are these: 100 mM NaPO4 pH 7.4, 0.240 mM GSNO, 0.300 mM NADH, 0.5 μg/mL GSNO Reductase, 1% DMSO, 25° C.; values given as 'about' bounds; read-out: IC50 (GSNOR inhibitor activity). The procedure:
Various compounds were tested in vitro for their ability to inhibit GSNOR activity. […] GSNOR expression and purification is described in Biochemistry 2000, 39, 10720-10729.
GSNOR fermentation: Pre-cultures were grown from stabs of a GSNOR glycerol stock in 2XYT media containing 100 ug/ml ampicillin after an overnight incubation at 37° C. Cells were then added to fresh 2XYT (4L) containing ampicillin and grown to an OD (A600) of 0.6-0.9 at 37° C. before induction. GSNOR expression was induced with 0.1% arabinose in an overnight incubation at 20° C.
GSNOR Purification: E. coli cell paste was lysed by nitrogen cavitation and the clarified lysate purified by Ni affinity chromatography on an AKTA FPLC (Amersham Pharmacia). The column was eluted in 20 mM Tris pH 8.0/250 mM NaCl with a 0-500 mM imidazole gradient. […] GSNOR was recovered in the flowthrough fraction and for crystallography is further purified by Q-Sepharose and Heparin flowthrough chromatography in 20 mM Tris pH 8.0, 1 mM DTT, 10 uM ZnSO4.
GSNOR assay: GSNO and Enzyme/NADH Solutions are made up fresh each day. The Solutions are filtered and allowed to warm to room temperature. GSNO Solution: 100 mM NaPO4 (pH 7.4), 0.480 mM GSNO. 396 μL of GSNO Solution is added to a cuvette followed by 8 μL of test compound in DMSO (or DMSO only for full reaction control) and mixed with the pipette tip. Compounds to be tested are made up at a stock concentration of 10 mM in 100% DMSO. 2 fold serial dilutions are done in 100% DMSO. 8 μL of each dilution are added to an assay so that the final concentration of DMSO in the assay is 1%. The concentrations of compounds tested range from 100 to 0.003 μM. Enzyme/NADH Solution: 100 mM NaPO4 (pH 7.4), 0.600 mM NADH, 1.0 μg/mL GSNO Reductase. 396 μL of the Enzyme/NADH Solution is added to the cuvette to start the reaction. The cuvette is placed in the Cary 3E UV/Visible Spectrophotometer and the change in 340 nm absorbance/min at 25° C. is recorded for 3 minutes. The assays are done in triplicate for each compound concentration. IC50's for each compound are calculated using the standard curve analysis in the Enzyme Kinetics Module of SigmaPlot.
Final assay conditions: 100 mM NaPO4, pH 7.4, 0.240 mM GSNO, 0.300 mM NADH, 0.5 μg/mL GSNO Reductase and 1% DMSO. Final volume: 800 μL/cuvette.
The term IC50 denotes the concentration that inhibits the measured activity by half. For `COc1ccc(-c2ccn(CCC(=O)O)c2-c2ccc(C(N)=O)cc2C)cc1` [Example 1, 3-(2-(4-carbamoyl-2-methylphenyl)-3-(4-methoxyphenyl)-1H-pyrrol-1-yl)propanoic acid], the IC50 was less than 1000 nM.
The result for `COc1ccc(-c2ccn(CC(C)C(=O)O)c2-c2ccc(C(N)=O)cc2C)cc1` (stereo not drawn) [Example 3, 3-(2-(4-carbamoyl-2-methylphenyl)-3-(4-methoxyphenyl)-1H-pyrrol-1-yl)-2-methylpropanoic acid] reads less than 5000 nM; that for `Cc1cc(C(N)=O)ccc1-c1c(-c2ccc(-n3ccnc3)cc2)ccn1CCC(=O)O` [Example 5, 3-(3-(4-(1H-imidazol-1-yl)phenyl)-2-(4-carbamoyl-2-methylphenyl)-1H-pyrrol-1-yl)propanoic acid], less than 1000 nM; that for `COc1ccc(-n2ccc(CCC(=O)O)c2-c2ccc(C(N)=O)cc2C)cc1` [Example 6, 3-(2-(4-carbamoyl-2-methylphenyl)-1-(4-methoxyphenyl)-1H-pyrrol-3-yl)propanoic acid], less than 1000 nM.
For the compound `COc1ccc(-c2ccn(CC(F)(F)C(=O)O)c2-c2ccc(C(N)=O)cc2C)cc1` [Example 9, 3-(2-(4-carbamoyl-2-methylphenyl)-3-(4-methoxyphenyl)-1H-pyrrol-1-yl)-2,2-difluoropropanoic acid], the IC50 was less than 5000 nM.
The result for `Cc1cc(C(N)=O)ccc1-c1c(CCC(=O)O)ccn1-c1ccc(-n2ccnc2)cc1` [Example 13, 3-(1-(4-(1H-imidazol-1-yl)phenyl)-2-(4-carbamoyl-2-methylphenyl)-1H-pyrrol-3-yl)propanoic acid] reads less than 1000 nM.
With `COc1cc(Cl)ccc1-n1ccc(CCC(=O)O)c1-c1ccc(C(N)=O)cc1C` [Example 14, 3-(2-(4-carbamoyl-2-methylphenyl)-1-(4-chloro-2-methoxyphenyl)-1H-pyrrol-3-yl)propanoic acid], the IC50 was less than 1000 nM.
The figure for `COc1ccc(-c2ccn(-c3ccc(C(=O)O)c(O)c3)c2-c2ccc(C(N)=O)cc2C)cc1` [Example 15, 4-(2-(4-carbamoyl-2-methylphenyl)-3-(4-methoxyphenyl)-1H-pyrrol-1-yl)-2-hydroxybenzoic acid] is less than 1000 nM; for `COc1ccc(-c2ccn(-c3ccc(C(=O)O)c(F)c3)c2-c2ccc(C(N)=O)cc2C)cc1` [Example 16, 4-(2-(4-carbamoyl-2-methylphenyl)-3-(4-methoxyphenyl)-1H-pyrrol-1-yl)-2-fluorobenzoic acid] it is less than 5000 nM.
The figure for `COc1ccc(-c2ccn(-c3ccc(O)c([N+](=O)[O-])c3)c2-c2ccc(C(N)=O)cc2C)cc1` [Example 17, 4-(1-(4-hydroxy-3-nitrophenyl)-3-(4-methoxyphenyl)-1H-pyrrol-2-yl)-3-methylbenzamide] is less than 1000 nM; for `COc1ccc(-c2ccn(-c3ccc(C(=O)O)cc3)c2-c2ccc(C(N)=O)cc2C)cc1` [Example 19, 4-(2-(4-carbamoyl-2-methylphenyl)-3-(4-methoxyphenyl)-1H-pyrrol-1-yl)benzoic acid] it is less than 1000 nM; for `COc1ccc(-c2ccn(-c3ccc(C(=O)O)c(Cl)c3)c2-c2ccc(C(N)=O)cc2C)cc1` [Example 20, 4-(2-(4-carbamoyl-2-methylphenyl)-3-(4-methoxyphenyl)-1H-pyrrol-1-yl)-2-chlorobenzoic acid] it is less than 5000 nM.
Consider `COc1ccc(-c2ccn(-c3ccc(O)c(F)c3)c2-c2ccc(C(N)=O)cc2C)cc1` [Example 23, 4-(1-(3-fluoro-4-hydroxyphenyl)-3-(4-methoxyphenyl)-1H-pyrrol-2-yl)-3-methylbenzamide], for which the IC50 is less than 1000 nM.
The result for `COc1ccc(-c2ccn(-c3cc(F)c(O)c(F)c3)c2-c2ccc(C(N)=O)cc2C)cc1` [Example 25, 4-(1-(3,5-difluoro-4-hydroxyphenyl)-3-(4-methoxyphenyl)-1H-pyrrol-2-yl)-3-methylbenzamide] reads less than 1000 nM; that for `COc1ccc(-c2ccn(-c3ccc(O)cn3)c2-c2ccc(C(N)=O)cc2C)cc1` [Example 26, 4-(1-(5-hydroxypyridin-2-yl)-3-(4-methoxyphenyl)-1H-pyrrol-2-yl)-3-methylbenzamide], less than 5000 nM; that for `COc1ccc(-c2ccn(-c3ccc(O)c(C(=O)O)c3)c2-c2ccc(C(N)=O)cc2C)cc1` [Example 27, 5-(2-(4-carbamoyl-2-methylphenyl)-3-(4-methoxyphenyl)-1H-pyrrol-1-yl)-2-hydroxybenzoic acid], less than 1000 nM.
The result for `Cc1cc(C(N)=O)ccc1-c1c(-c2ccc(-n3ccnc3C)cc2)ccn1-c1ccc(O)c(F)c1` [Example 29, 4-(1-(3-fluoro-4-hydroxyphenyl)-3-(4-(2-methyl-1H-imidazol-1-yl)phenyl)-1H-pyrrol-2-yl)-3-methylbenzamide] reads less than 1000 nM.
The figure for `Cc1cc(C(N)=O)ccc1-c1c(-c2ccc(-n3ccnc3C)cc2)ccn1-c1cc(F)c(O)c(F)c1` [Example 30, 4-(1-(3,5-difluoro-4-hydroxyphenyl)-3-(4-(2-methyl-1H-imidazol-1-yl)phenyl)-1H-pyrrol-2-yl)-3-methylbenzamide] is less than 1000 nM.
